tested on: HIV; assay: MT4 assay: antiviral HIV activity (cell protection, cell titer glo readout at 96 hours); type: cell-based; conditions: Human immunodeficiency virus 1, MT4, 96 h, MT4 cells, cell titer glo readout at 96 hours, 10 point dose response; read-out: HIV MT4 Assay IC50
How it was run: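 MT-4 cells infected with HIV, with inhibition readout by CellTiter-Glo luminescence at 96 h relative to no-compound control. Cytotoxicity measured in parallel under the same conditions. IC50 from a 10-point, 3-4-fold dilution series spanning >1000-fold, fitted with a four-parameter logistic equation.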

Row | SMILES | IC50
1 | Cc1nc2c(cc(/C=C/C(=O)NCCC(C)(C)C)n2C)c(-c2cc(F)c3c(c2C)CCCO3)c1[C@H](OC(C)(C)C)C(=O)O [Example 416] | 26.7 nM
2 | Cc1nc2c(cc(/C=C/C(=O)NCc3ccc(F)cc3)n2C)c(-c2cc(F)c3c(c2C)CCCO3)c1[C@H](OC(C)(C)C)C(=O)O [Example 417] | 33.7 nM
3 | Cc1nc2c(cc(/C=C/C(=O)NCCO)n2C)c(-c2cc(F)c3c(c2C)CCCO3)c1[C@H](OC(C)(C)C)C(=O)O [Example 418] | 3440 nM
4 | Cc1nc2c(cc(/C=C/C(=O)NCCN3CCCC3=O)n2C)c(-c2cc(F)c3c(c2C)CCCO3)c1[C@H](OC(C)(C)C)C(=O)O [Example 419] | 3240 nM
5 | Cc1ccc(-c2c([C@H](OC(C)(C)C)C(=O)O)c(C)nc3c2cc(-c2ccnc(-c4ccc5c(cnn5C)c4)c2)n3C)cc1 [Example 421] | 7.6 nM
6 | Cc1nc2c(cc(-c3ccnc(-c4ccc5c(cnn5C)c4)c3)n2C)c(-c2ccc3c(c2Cl)NCCO3)c1[C@H](OC(C)(C)C)C(=O)O [Example 422] | 1.5 nM
7 | Cc1nc2c(cc(-c3ccnc(-c4ccc5c(cnn5C)c4)c3)n2C)c(-c2ccc3c(c2C)NCCO3)c1[C@H](OC(C)(C)C)C(=O)O [Example 423] | 1.8 nM
8 | Cc1nc2c(cc(-c3ccnc(-c4ccc5c(cnn5C)c4)c3)n2C)c(-c2ccccc2)c1[C@H](OC(C)(C)C)C(=O)O [Example 424] | 46.4 nM
9 | Cc1nc2c(cc(-c3ccnc(-c4ccc5c(cnn5C)c4)c3)n2C)c(C2=CCCCC2)c1[C@H](OC(C)(C)C)C(=O)O [Example 425] | 34.5 nM
10 | Cc1nc2c(cc(-c3ccnc(-c4ccc5c(cnn5C)c4)c3)n2C)c(C)c1[C@H](OC(C)(C)C)C(=O)O [Example 426] | 45000 nM
11 | Cc1nc2c(cc(-c3ccnc(-c4ccc5c(cnn5C)c4)c3)n2C)c(-c2ccc3c(c2C)OCCO3)c1[C@H](OC(C)(C)C)C(=O)O [Example 427] | 2.7 nM
12 | Cc1nc2c(cc(-c3ccnc(-c4ccc5c(cnn5C)c4)c3)n2C)c(-c2ccc3c(c2)CCCO3)c1[C@H](OC(C)(C)C)C(=O)O [Example 428] | 4.6 nM
13 | Cc1nc2c(cc(-c3ccnc(N4CCCN(C5COC5)CC4)c3)n2C)c(-c2ccc3c(c2)CCCO3)c1[C@H](OC(C)(C)C)C(=O)O [Example 429] | 75 nM
14 | Cc1nc2c(cc(-c3ccnc(N4CCCN(C5COC5)CC4)c3)n2C)c(-c2ccc3c(c2C)CCCO3)c1[C@H](OC(C)(C)C)C(=O)O [Example 430] | 16.3 nM
15 | Cc1nc2c(cc(-c3ccnc(N4CCCN(C5COC5)CC4)c3)n2C)c(-c2ccc(Cl)cc2)c1[C@H](OC(C)(C)C)C(=O)O [Example 431] | 143 nM
16 | Cc1ccc(-c2c([C@H](OC(C)(C)C)C(=O)O)c(C)nc3c2cc(-c2ccnc(N4CCCN(C5COC5)CC4)c2)n3C)cc1 [Example 432] | 200 nM
17 | Cc1nc2c(cc(-c3ccnc(N4CCCN(C5COC5)CC4)c3)n2C)c(-c2cc(F)c3c(c2C)NCCO3)c1[C@H](OC(C)(C)C)C(=O)O [Example 433] | 127 nM

Next, values leading:

Row | IC50 | SMILES
18 | 51.6 nM | Cc1nc2c(cc(-c3ccnc(N4CCCN(C5COC5)CC4)c3)n2C)c(-c2ccc3c(c2C)NCCO3)c1[C@H](OC(C)(C)C)C(=O)O [Example 434]
19 | 3010 nM | Cc1nc2c(cc(-c3ccnc(N4CCCN(C5COC5)CC4)c3)n2C)c(-c2ccccc2)c1[C@H](OC(C)(C)C)C(=O)O [Example 435]
20 | 5.9 nM | Cc1nc2c(cc(-c3ccnc(-c4ccc5c(cnn5C)c4)c3)n2C)c(C2=CCC(C)(C)CC2)c1[C@H](OC(C)(C)C)C(=O)O [Example 436]
21 | 38 nM | Cc1nc2c(cc(-c3ccnc(-c4ccc5c(cnn5C)c4)c3)n2C)c(-c2ccc(Cl)cc2O)c1[C@H](OC(C)(C)C)C(=O)O [Example 437]
22 | 4.9 nM | CCO[C@H](C(=O)O)c1c(C)nc2c(cc(-c3ccnc(-c4ccc5c(cnn5C)c4)c3)n2C)c1-c1cc(F)c2c(c1C)CCCO2 [Example 438]
23 | 3 nM | CCO[C@H](C(=O)O)c1c(C)nc2c(cc(-c3nnc(-c4ccc5c(cnn5C)c4)o3)n2C)c1-c1cc(F)c2c(c1C)CCCO2 [Example 439]
24 | 348 nM | CCO[C@H](C(=O)O)c1c(C)nc2c(cc(-c3nnc(N4CCN(C5CCOCC5)CC4)o3)n2C)c1-c1cc(F)c2c(c1C)CCCO2 [Example 440]
25 | 160 nM | Cc1nc2c(cc(-c3nnc(N4CCN(C5CCOCC5)CC4)o3)n2C)c(-c2cc(F)c3c(c2C)CCCO3)c1[C@H](OC(C)C)C(=O)O [Example 441]
26 | 5.1 nM | Cc1nc2c(cc(-c3nnc(-c4ccc5c(cnn5C)c4)o3)n2C)c(-c2cc(F)c3c(c2C)CCCO3)c1[C@H](OC(C)C)C(=O)O [Example 442]
